# System: 2nd instar larva of Spodoptera frugiperda
# Test: Laboratory test of larval mortality on maize leaves
# Type: in vivo
smiles,measurement,value
"CNC(=O)c1cc(Cl)cc(C)c1NC(=O)c1cc(Br)nn1-c1ncccc1Cl [Compound 2, 3-bromo-N-[4-chloro-2-methyl-6-[(methylamino)carbonyl]phenyl]-1-(3-chloro-2-pyridinyl)-1H-pyrazole-5-carboxamide]",concentration in leaf tissue needed to achieve 100% mortality within 72 h,0.037 micrograms per g of tissue
same,concentration in leaf tissue resulting in 50% mortality within 72 h,0.033 micrograms per g of leaf tissu

# Reference: patent publication US9204644B2, “Nanoparticles compositions containing polymers and anthranilic acid diamide insecticides for propagule coating” (priority 2011, dated 2015)
